A short description of the series: physchem. The note with it: buffer, pH 7.4.

≈ marks a conversion by molar mass, not a printed value.

By solubility is commonly meant the dissolved amount per volume that the medium holds. Low values mean little dissolved substance, high ones much dissolved substance.

On to `COc1cc(OC)cc(N(CCNC(C)C)c2ccc3ncc(-c4cnn(CCN(C)C)c4)c(=O)n3c2)c1`, for which the solubility was below 10 µg/mL.

Compound `COc1cc(OC)cc(N(CCNC(C)C)c2ccc3ncc(-c4cnn(C5CN(C(C)=O)C5)c4)c(=O)n3c2)c1` came in with a solubility of 59.1 µg/mL (≈ 108 µM).

(Values after ChEMBL document CHEMBL4837205, “Design, synthesis and biological evaluations of a series of Pyrido[1,2-a]pyrimidinone derivatives as novel selective FGFR inhibitors” (Eur J Med Chem, 2021).)
